Experimental data: patent publication US11008361B2, “Liver-specific delivery-based anti-hepatitis C prodrug nucleoside cyclo-phosphate compound and uses thereof” (priority 2017, dated 2021)

Columns and labels:
[1] = Compound tissue distribution experiment in rats (metabolites 2FM-UR, 2FM-UMP, 2FM-UTP by LC-MS/MS); type: in vivo, Sprague Dawley rats; settings: rat; for 2FM-UTP released in liver versus corresponding time points of sofosbuvir: 30 mg/Kg oral, p<0.01, FIG. 2; for 2FM-UMP released in the heart versus sofosbuvir: p<0.01, FIGS. 3A-3B; for Active molecule 2FM-UTP in the blood and heart: lower limit of quantitation 5 ng/mL or 5 ng/g
Description: Sprague Dawley rats, male, weighing 180-300 g, were provided by Shanghai Xipuer-Beikai Experimental Animal Co., Ltd. Male animals were allowed to adapt to the environment for more than 3 days, and fasted for 12 hours before the experiment, but were free to drink water. PA2020, PA2024, PA2029 and sofosbuvir were respectively dissolved in a mixed solvent of Cremophor EL, ethanol and normal saline at a volume ratio of 10:10:80 to prepare corresponding solutions. Before the administration, the animals' weight was checked to determine whether the rats met the experimental requirements. Twelve rats were selected for grouping, 2 rats in each group, and 30 mg/kg of a drug solution was administered intragastrically to the rats. Samples were respectively collected at 0.5 h, 1 h, 3 h, 6 h, 12 h and 24 h after the administration. After the rats were euthanized with carbon dioxide, the blood was collected from the heart and stored in heparin anticoagulation tubes. The blood was centrifuged at 6,000 rpm and 4° C. for 5 min, and the supernatant plasma was taken and stored in dry ice. The kidney, liver and heart of the rats were collected and rinsed with normal saline pre-cooled at 4° C. and stored in dry ice after the water was drained. After the experiment, the samples were stored in a −80° C. refrigerator.
Due to the difference in polarity, 2FM-UR, 2FM-UMP and 2FM-UTP were separated and detected using different methods, so that the used LC-triple quadrupole mass spectrometry detectors, the pretreatment conditions, chromatographic and mass spectrometric conditions varied among these compounds.
In the ice bath, 50 μL of plasma was first mixed with 50 μL of internal standard solution (10% trichloroacetic acid solution of tenofovir at 500 ng/mL). After centrifugation at 13,000 rpm and 4° C. for 10 min, 20 μL of the supernatant was mixed with 180 μL of water, and 5 μL of the resulting solution was injected and analyzed by LC-MS/MS.
The kidney, liver and heart tissue were mixed with a buffer in a volume ratio of 1:5 and fully disrupted in the ice bath. 20 μL of the tissue homogenate was mixed with 20 μL of the internal standard solution (500 ng/mL of tenofovir in 10% trichloroacetic acid solution). After centrifugation at 13,000 rpm for 10 min at 4° C., 20 μL of the supernatant was mixed with 180 μL of water, and 5 μL of the resulting solution was injected and analyzed by LC-MS/MS.
LC-MS/MS-AJ (Triple Quad 5500, AB SCIEX) was used for sample analysis. Column: Acquity UPLC HSS T3 (2.1×50 mm, […]); column temperature: 40° C.; flow rate: 0.5 mL/min. Mobile phase A: 0.1% aqueous formic acid, mobile phase B: acetonitrile solution. Mass spectrometry conditions corresponding to the internal standard: electrospray ionization (ESI) positive ion mode, multiple reaction monitoring (MRM) monitoring ion pair m/z: 288/176 (tenofovir), 261/113 (2FM-UR); the temperature was 500° C.; the scanning time was 0.03 s; the collision energy was 15V.
In the ice bath, 30 μL of plasma was first mixed with 30 μL of internal standard solution (5% trichloroacetic acid solution of 100 ng/mL tolbutamide). After centrifugation at 13,000 rpm for 10 min at 4° C., 40 μL of the supernatant was mixed with 80 μL of water, and 5 μL of the injection was analyzed.
Kidney, liver, heart tissue: in the ice bath, tissue and 5 volumes of homogenization buffer of organ tissues (1.75 mL of methanol, 5 μL of 50% KOH solution and 0.75 mL of 268 mM EDTA solution, pH=8) were fully disrupted and mixed. 60 μL of tissue homogenate was mixed with 60 μl of internal standard solution (5% trichloroacetic acid solution of 100 ng/mL tolbutamide). After centrifugation at 13,000 rpm for 10 minutes at 4° C., 40 μL of the supernatant was mixed with 80 μL of water, and 5 μL of the injection was analyzed.
LC-MS/MS-AJ (Triple Quad 5500, AB SCIEX) was used for sample analysis. Column: ACE 3 AQ (2.1×50 mm); column temperature: 55° C.; flow rate: 0.45 mL/min. […]

[2] = system: human liver microsome (HLM); test: Human liver microsomal metabolism in vitro (release of 2FM-UMP); type: in vitro ADME; settings: formation of 2FM-UMP, versus other candidate compounds of Table 3
Excerpt: The human liver microsome (HLM) used in this test was purchased from In Vitro Technologies (IVT) with a batch number of SSP X008070, which was a mixed liver microsome extracted from the liver tissues of 150 donors. The product description recorded that the metabolic activity of CYP3A4 in this batch of the human liver microsomes was 1.734 nmol/mg/min (the rate at which testosterone is metabolized to produce 6-β testosterone). The test compound was synthesized by Zhejiang Plato Pharmaceutical Technology Co., Ltd., and dissolved in methanol to prepare a storage solution having a concentration of 25 mM. The enzymatic reaction was carried out in a 100 mM KH2PO4 buffer solution (pH 7.4) at a test compound concentration of 25 μM and a human liver microsome concentration of 2 mg/ml. The reaction was initiated by the addition of NADPH (final concentration 2 mM). After reacting for 5 min in a constant temperature shaking water bath, the reaction was terminated by the rapid addition of methanol at a volume of 1.5 times that of the reaction mixture. The reaction solution was centrifuged at a maximum speed of 13,600 rpm using an Eppendorf bench top centrifuge for 20 min, and the supernatant was taken. And then the supernatant was dried by a nitrogen blower and redissolved in mobile phase A (aqueous solution containing 5 mM ammonium acetate and 0.05% formic acid v/v). The resulting sample was analyzed by LC-MS/MS (Waters, Acquity UPLC HSS T3 column).

rat hepatocytes = settings: lamivudine triphosphate used as a reference; cited from earlier work
[3] = 30 mg/kg intragastric, within 24 h
[4] = 30 mg/kg intragastric, within 24 h, plasma
[5] = same dose (30 mg/kg), plasma, relative to sofosbuvir

SMILES	2FM-UTP released in liver versus corresponding time points of sofosbuvir [1]	Exposure amount of 2FM-UMP in liver (AUC0-t) [1, 3] [ng·h/g]	Exposure amount of 2FM-UTP in liver (AUC0-t) [1, 3] [ng·h/g]	Exposure amount of 2FM-UMP in plasma (AUC0-t) [1, 4] [ng·h/g]	2FM-UMP released in the heart versus sofosbuvir ([1]; 30 mg/kg, heart)	Active molecule 2FM-UTP in the blood and heart ([1]; 30 mg/kg)	Transformation rate relative to other candidate compounds [2]	2FM-UR released in the heart versus equivalent dose of sofosbuvir ([1]; 30 mg/kg, heart, p<0.01, FIGS. 4A-4B)	2FM-UMP concentration in plasma as fraction of sofosbuvir [1, 5]	2FM-UR concentration in plasma relative to sofosbuvir [1, 5]	Corresponding active triphosphate compound produced in rat hepatocytes (rat hepatocytes) [nmol/g]	Exposure amount of 2FM-UMP in heart (AUC0-t) ([1]; 30 mg/kg intragastric, within 24 h, heart, N.D. = below 5 ng/g or 5 ng/mL) [ng·h/g]
C[C@@]1(F)[C@H](O)[C@@H](COP2(=O)OCC[C@H](c3cc(F)cc(Cl)c3)O2)O[C@H]1n1ccc(=O)[nH]c1=O (stereo partly drawn) [PA2020]	significantly higher	102822	26682	439	less	could not be detected	almost more than twice					
C[C@@]1(F)[C@H](O)[C@@H](COP2(=O)OCC[C@H](c3cc(Cl)cc(Cl)c3)O2)O[C@H]1n1ccc(=O)[nH]c1=O (stereo partly drawn) [PA2024]	significantly higher	65242	9591	105	less	could not be detected	almost more than twice					
C[C@@]1(F)[C@H](O)[C@@H](COP2(=O)OCC[C@H](c3cc(Cl)ccc3F)O2)O[C@H]1n1ccc(=O)[nH]c1=O (stereo partly drawn) [PA2029]	significantly higher	110339	11820	1451	less	could not be detected	almost more than twice	less	¼	approximately half		
CCC(=O)O[C@@H]1[C@@H](COP2(=O)OCC[C@H](c3cccc(Cl)c3)O2)O[C@@H](n2ccc(=O)[nH]c2=O)[C@]1(C)F (stereo partly drawn)											87.8	
CC(C)OC(=O)[C@H](C)N[P@](=O)(OC[C@H]1O[C@@H](n2ccc(=O)[nH]c2=O)[C@](C)(F)[C@@H]1O)Oc1ccccc1 [SFB, sofosbuvir, reference compound]		27128	2691	5680		could not be detected						417
